Patent US10513694B2, “Thienopyrrole compounds and uses thereof” (PROMEGA CORPORATION, priority 2015, dated 2019)
“Also recorded” adds a separate entry of the source.

Experiments:
[1] = target: T1, Nluc (Oplophorus gracilirostris, UniProt Q9GV45, A31E/A60N/A81I/F95D/I117V/K70R/L54V/L99Q/M102K/N193R/P142E/Q151K/Q38R/Q45L/V71I/Y165I); test: Multiplex RealTime-Glo / Caspase-Glo 3/7 in DMEM media; type: biochemical; design: purchased Promega Corporation; conditions: for Avg (luminescence), 1 hour: RealTime-Glo reagent in DMEM + Caspase-Glo 3/7
T1 sequence (Q9GV45 28-196 with tags or gaps with the stated changes limits assumed): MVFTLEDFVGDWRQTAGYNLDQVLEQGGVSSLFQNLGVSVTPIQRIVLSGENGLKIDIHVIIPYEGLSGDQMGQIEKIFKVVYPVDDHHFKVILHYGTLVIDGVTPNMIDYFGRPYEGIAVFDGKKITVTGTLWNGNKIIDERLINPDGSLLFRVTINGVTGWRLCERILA
Procedure: In a Corning 3570 assay plate, 1× REAL-TIME-GLO™ MT Cell Viability assay reagent was prepared in 40 μL DMEM media (n=3) and incubated overnight. Next, 40 μL of a titration of JRW-0147 or JRW-0344 (2× concentration in CASPASE-GLO® 3/7 Assay Reagent (Promega Corporation)) was added. The reactions were incubated at room temperature, and luminescence determined at 1 hour.

[2] = system: firefly luciferase, e.g., ULTRAGLO® luciferase; test: Specificity of inhibition: firefly luciferase activity; type: biochemical; conditions: 1 μM luciferin in Luciferase Detection Reagent; RT 2 hrs
Procedure, shortened: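 Counter-screen against firefly (ULTRAGLO®) luciferase: 1 μM luciferin in detection reagent mixed with equal volume of compound titrations. After 2 hrs at RT, luminescence read.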

[3] = system: Nluc-HALOTAG labeled with NANOBRET 618 ligand; test: Inhibition of extracellular BRET; type: cell-based; conditions: HEK293 Nluc-HDAC6; 10 ng/mL extracellular Nluc-HALOTAG/NANOBRET 618; 2 hrs
Procedure: HEK293 were transiently transfected with an Nluc-HDAC6 fusion protein to orient Nluc-HDAC6 inside the cell. 24 hrs post-transfection, cells were treated 10 ng/mL purified Nluc-HALOTAG labeled with NANOBRET 618 ligand to simulate spurious extracellular BRET. Cells were then exposed to a compound response curve of the thienopyrrole compounds, JRW-0013, JRW-0051, JRW-0147, and JRW-0187, for 2 hrs. 10 μM furimazine was then added, and BRET ratio 610/450 nm was measured.

[4] = target: T2, purified Nluc (extracellular); Nluc-HALOTAG fusion protein (intracellular) (Oplophorus gracilirostris, UniProt Q9GV45, A31E/A60N/A81I/F95D/I117V/K70R/L54V/L99Q/M102K/N193R/P142E/Q151K/Q38R/Q45L/V71I/Y165I); test: Inhibition of extracellular luciferase activity and enhancement of intracellular BRET; type: cell-based; conditions: HEK293 Nluc-HALOTAG + NANOBRET 618; 10 ng/mL extracellular purified Nluc; 2 hrs
T2 construct: expressed in transfected cells; host or cells: HEK293 (Nluc-HaloTag); purified Nluc added from outside
T2 sequence (Q9GV45 28-196 with tags or gaps with the stated changes limits assumed): as above
Procedure: HEK293 were transiently transfected with Nluc-HALOTAG fusion protein to orient Nluc-HALOTAG inside the cell. 24 hrs post-transfection, cells were labeled with NANOBRET 618 ligand to simulate specific intracellular BRET. Cells were then treated 10 ng/mL purified Nluc to simulate spurious extracellular luminescence. Cells were exposed to a compound response curve of the thienopyrrole compounds, JRW-0013, JRW-0051, JRW-0147, and JRW-0187, for 2 hrs. 10 μM furimazine was added, and the BRET ratio 610/450 nm was measured.

[5] = target: T1, Nluc; test: Multiplex RealTime-Glo / Caspase-Glo 3/7 in A549 cells; type: cell-based; design: purchased Promega Corporation; conditions: final, 1 hr
Procedure: B) A549 cells were plated at 1,000 cells/well in 20 μL F12K media into wells of a Corning 3570 plate (n-4) and incubated overnight. Then, REALTIME-GLO™ MT Cell Viability assay reagents (Promega Corporation) were added to the wells as a 2× solution in 20 μL media. The reaction was incubated for 1 hr. 40 μL of a titration of JRW-0013 or JRW-0147 in CASPASE-GLO® 3/7 assay reagent (Promega Corporation) at 2× concentrations was added. The reactions were incubated at RT, and luminescence was determined at 1 hr.

[6] = target: Nluc luciferase (Oplophorus gracilirostris, UniProt Q9GV45, A31E/A60N/A81I/F95D/I117V/K70R/L54V/L99Q/M102K/N193R/P142E/Q151K/Q38R/Q45L/V71I/Y165I); type: cell-based; design: expressed in transfected cells; host or cells: HEK293; conditions: HEK293; 10, 30 or 120 minutes
Sequence of Nluc luciferase (Q9GV45 28-196 with tags or gaps with the stated changes limits assumed): as above
Procedure: HEK293 cells were transiently transfected with Nluc luciferase to express it cytosolically. Twenty-four hours post-transfection, cells were exposed to a compound response curve of the thienopyrrole compound JRW-0147 or JRW-0013 for 10 minutes, 30 minutes, or 120 minutes. 10 μM furimazine was then added, and luminescence was measured.

Row | SMILES | S/B, 1 hour ([1]; [cmpd] final 0.09765625 μM) | Avg (luminescence), 1 hour ([1]; [cmpd] final 0.09765625 μM) | S/B, 1 hour ([1]; [cmpd] final 0.1953125 μM) | Avg (luminescence), 1 hour ([1]; [cmpd] final 0.1953125 μM) | S/B, 1 hour ([1]; [cmpd] final 0.390625 μM) | Avg (luminescence), 1 hour ([1]; [cmpd] final 0.390625 μM) | S/B, 1 hour ([1]; [cmpd] final 0.78125 μM) | Avg (luminescence), 1 hour ([1]; [cmpd] final 0.78125 μM) | S/B, 1 hour ([1]; [cmpd] final 1.5625 μM) | Avg (luminescence), 1 hour ([1]; [cmpd] final 1.5625 μM) | S/B, 1 hour ([1]; [cmpd] final 3.125 μM) | Avg (luminescence), 1 hour ([1]; [cmpd] final 3.125 μM) | S/B, 1 hour ([1]; [cmpd] final 6.25 μM) | Avg (luminescence), 1 hour ([1]; [cmpd] final 6.25 μM) | S/B, 1 hour ([1]; [cmpd] final 12.5 μM) | Avg (luminescence), 1 hour ([1]; [cmpd] final 12.5 μM) | S/B, 1 hour ([1]; [cmpd] final 25 μM) | Avg (luminescence), 1 hour ([1]; [cmpd] final 25 μM) | S/B, 1 hour ([1]; [cmpd] final 50 μM) | Avg (luminescence), 1 hour ([1]; [cmpd] final 50 μM) | also measured
1 | CCN(C(=O)Cn1c(C(=O)N[C@H]2CC[C@H](C(=O)NCCCCCCS(=O)(=O)[O-])CC2)cc2sccc21)c1cccc(C)c1.[Na+] [JRW-0344, Sodium 6-(trans-4-(4-(2-(ethyl(m-tolyl)amino)-2-oxoethyl)-4H-thieno[3,2-b]pyrrole-5-carboxamido)cyclohexane-1-carboxamido)hexane-1-sulfonate] | 0.71 | 112533 | 0.80 | 126333 | 0.88 | 138900 | 0.61 | 95993 | 0.41 | 65097 | 0.21 | 33523 | 0.12 | 19560 | 0.10 | 15547 | 0.06 | 9761 | 0.04 | 6790 | S/B, 1 hour ([1]; [cmpd] final 100 μM): 0.03; Avg (luminescence), 1 hour ([1]; [cmpd] final 100 μM): 5523
2 | CCN(C(=O)Cn1c(C(=O)N[C@H]2CC[C@H](C(=O)OC)CC2)cc2sccc21)c1cccc(C)c1 [JRW-0013, trans-methyl-4-(4-(2-(ethyl(m-tolyl)amino)-2-oxoethyl)-4H-thieno[3,2-b]pyrrole-5-carboxamido)cyclohexane-1-carboxylate] | – | – | – | – | – | – | – | – | – | – | – | – | – | – | – | – | – | – | – | – | Inhibition of firefly luciferase activity (FIG. 3) [2]: do not inhibit firefly luciferase activity; also recorded: did not inhibit the firefly luciferase activity; BRET ratio 610/450 nm across compound dose-response curve (FIGS. 12B-12E) [3]: BRET ratio remained constant; BRET ratio 610/450 nm across compound dose-response curve (FIGS. 13B-13E) [4]: BRET ratio remained constant; Caspase, Avg (luminescence) ([5]; Inhibitor 1.73 μM): 12879; Caspase, Avg (luminescence) ([5]; Inhibitor 2.60 μM): 11813; Caspase, Avg (luminescence) ([5]; Inhibitor 3.90 μM): 9148; Caspase, Avg (luminescence) ([5]; Inhibitor 5.85 μM): 8059; Caspase, Avg (luminescence) ([5]; Inhibitor 8.78 μM): 6703; Caspase, Avg (luminescence) ([5]; Inhibitor 13.17 μM): 6014; Caspase, Avg (luminescence) ([5]; Inhibitor 19.75 μM): 5095; Caspase, Avg (luminescence) ([5]; Inhibitor 29.63 μM): 5132; Caspase, Avg (luminescence) ([5]; Inhibitor 44.44 μM): 4419; Caspase, Avg (luminescence) ([5]; Inhibitor 66.67 μM): 4017; Caspase, Avg (luminescence) ([5]; Inhibitor 100 μM): 3619; Change in RLUs from cytosolic Nluc (FIG. 16) [6]: decrease the RLUs from Nluc in a dose-dependent manner independent of time
3 | CCN(C(=O)Cn1c(C(=O)N[C@H]2CC[C@H](C(=O)NCCCCCC(=O)O)CC2)cc2sccc21)c1cccc(C)c1 [JRW-0147, 6-(trans-4-(4-(2-(ethyl(m-tolyl)amino)-2-oxoethyl)-4H-thieno[3,2-b]pyrrole-5-carboxamido)cyclohexane-1-carboxamido)hexanoic acid] | 0.84 | 117067 | 0.89 | 124500 | 0.85 | 117833 | 0.77 | 106867 | 0.47 | 65173 | 0.32 | 45167 | 0.20 | 27817 | 0.12 | 17293 | 0.08 | 10699 | 0.06 | 8136 | Inhibition of firefly luciferase activity (FIG. 3) [2]: do not inhibit firefly luciferase activity; also recorded: did not inhibit the firefly luciferase activity; BRET ratio 610/450 nm across compound dose-response curve (FIGS. 12B-12E) [3]: BRET ratio decreased; BRET ratio 610/450 nm across compound dose-response curve (FIGS. 13B-13E) [4]: intracellular BRET ratio was enhanced; Caspase, Avg (luminescence) ([5]; Inhibitor 1.73 μM): 15580; Caspase, Avg (luminescence) ([5]; Inhibitor 2.60 μM): 11677; Caspase, Avg (luminescence) ([5]; Inhibitor 3.90 μM): 9790; Caspase, Avg (luminescence) ([5]; Inhibitor 5.85 μM): 8013; Caspase, Avg (luminescence) ([5]; Inhibitor 8.78 μM): 7125; Caspase, Avg (luminescence) ([5]; Inhibitor 13.17 μM): 5545; Caspase, Avg (luminescence) ([5]; Inhibitor 19.75 μM): 5302; Caspase, Avg (luminescence) ([5]; Inhibitor 29.63 μM): 4394; Caspase, Avg (luminescence) ([5]; Inhibitor 44.44 μM): 4367; Caspase, Avg (luminescence) ([5]; Inhibitor 66.67 μM): 3427; Caspase, Avg (luminescence) ([5]; Inhibitor 100 μM): 3389; S/B, 1 hour ([1]; [cmpd] final 100 μM): 0.05; Avg (luminescence), 1 hour ([1]; [cmpd] final 100 μM): 6568; Change in RLUs from cytosolic Nluc (FIG. 16) [6]: no significant change in RLUs from Nluc
